Experimental data as given in ChEMBL document CHEMBL1201862, “PubChem BioAssay data set” (2004).
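How tested: cells in 96-well plates exposed to compound for 48 hours at five concentrations. At the GI50, growth is halved.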 Active and inactive are the calls of the source. No stated cut-off is given here; in the data, active = GI50 up to about 1.1 µM and inactive = higher.

How the values were obtained:
Assay in all cases: growth of human tumour cells (NCI), 48 h
TK-10 = test system: TK-10
HOP-92 = test system: HOP-92
SNB-19 = test system: SNB-19
OVCAR-5 = test system: OVCAR-5
A549 = test system: A549
IGROV-1 = test system: IGROV-1
Hs-578T = test system: Hs-578T
OVCAR-4 = test system: OVCAR-4
SK-MEL-28 = test system: SK-MEL-28
KM12 = test system: KM12
SK-OV-3 = test system: SK-OV-3
SR = test system: SR
SW-620 = test system: SW-620
MDA-MB-435 = test system: MDA-MB-435
OVCAR-3 = test system: OVCAR-3
PC-3 = test system: PC-3
CAKI-1 = test system: CAKI-1
CCRF-CEM = test system: CCRF-CEM
SF-539 = test system: SF-539
RPMI-8226 = test system: RPMI-8226

Row | Compound | GI50 (TK-10) | GI50 (HOP-92) | GI50 (SNB-19) | GI50 (OVCAR-5) | GI50 (A549) | GI50 (IGROV-1) | GI50 (Hs-578T) | GI50 (OVCAR-4) | GI50 (SK-MEL-28) | GI50 (KM12) | GI50 (SK-OV-3) | GI50 (SR) | GI50 (SW-620) | GI50 (MDA-MB-435) | GI50 (OVCAR-3) | GI50 (PC-3) | GI50 (CAKI-1) | GI50 (CCRF-CEM) | GI50 (SF-539) | GI50 (RPMI-8226)
1 | COC(=O)[C@H](Cc1c[nH]c2ccccc12)NC(=O)c1ccccc1I | 24.4 µM (inactive) | 16.9 µM (inactive) | > 100 µM (inactive) | > 100 µM (inactive) | > 100 µM (inactive) | 31.8 µM (inactive) | 9.84 µM (inactive) | 30 µM (inactive) | 89.3 µM (inactive) | 41.4 µM (inactive) | 33.6 µM (inactive) | 24.2 µM (inactive) | 31.5 µM (inactive) | 25.4 µM (inactive) | 13.6 µM (inactive) | 24.6 µM (inactive) | 20.7 µM (inactive) |  |  | 
2 | CC1(C)CCOC(=O)C(Cl)CC1Cl (stereo not drawn) | > 100 µM (inactive) |  | > 100 µM (inactive) | > 100 µM (inactive) | > 100 µM (inactive) | > 100 µM (inactive) | > 100 µM (inactive) | > 100 µM (inactive) | > 100 µM (inactive) | > 100 µM (inactive) | > 100 µM (inactive) | > 100 µM (inactive) | > 100 µM (inactive) | > 100 µM (inactive) | > 100 µM (inactive) | > 100 µM (inactive) | > 100 µM (inactive) | > 100 µM (inactive) | > 100 µM (inactive) | 
3 | CC(=O)O/C(=C(/C#N)C(=O)O)C1C(C(=O)O)C(c2ccccc2[N+](=O)[O-])C=C(c2ccco2)N1c1ccncc1 (stereo not drawn) | 3.33 µM (inactive) | 16 µM (inactive) | 11.8 µM (inactive) | 7.89 µM (inactive) | 3.41 µM (inactive) | 1.12 µM (inactive) | 8.93 µM (inactive) | 14.3 µM (inactive) | 10.4 µM (inactive) | 1.48 µM (inactive) | 11.6 µM (inactive) |  | 1.85 µM (inactive) | 4.62 µM (inactive) | 2.94 µM (inactive) | 6.4 µM (inactive) | 4.3 µM (inactive) | 2.43 µM (inactive) | 1.95 µM (inactive) | 1.68 µM (inactive)
4 | O=C(/N=C1/NCC(CN2CCN(c3ccccc3)CC2)O1)Nc1ccccc1 (stereo not drawn) | > 100 µM (inactive) | > 100 µM (inactive) | > 100 µM (inactive) | > 100 µM (inactive) | > 100 µM (inactive) | > 100 µM (inactive) | > 100 µM (inactive) | > 100 µM (inactive) | > 100 µM (inactive) | > 100 µM (inactive) | > 100 µM (inactive) | > 100 µM (inactive) | > 100 µM (inactive) | > 100 µM (inactive) |  | > 100 µM (inactive) | > 100 µM (inactive) | > 100 µM (inactive) |  | > 100 µM (inactive)
5 | O=C(O)c1ccc(Nc2nc3cc(C(F)(F)F)ccc3nc2-c2ccccc2)cc1 | 15.2 µM (inactive) |  | 30.6 µM (inactive) | 45.6 µM (inactive) | 16.3 µM (inactive) | 13.4 µM (inactive) | 17.6 µM (inactive) |  | 28.6 µM (inactive) | 13.2 µM (inactive) |  | 6.89 µM (inactive) | 17.2 µM (inactive) | 31.6 µM (inactive) | 15.2 µM (inactive) | 18.5 µM (inactive) | 23.3 µM (inactive) | 22.3 µM (inactive) | 21.7 µM (inactive) | 16.4 µM (inactive)
6 | Cc1nc2c(Cl)cc(Cl)cc2c(Cl)c1CCCl | 32.4 µM (inactive) |  | 56.4 µM (inactive) | 78.3 µM (inactive) | 78.7 µM (inactive) | > 100 µM (inactive) | 51.4 µM (inactive) |  | > 100 µM (inactive) | > 100 µM (inactive) | > 100 µM (inactive) | 79.1 µM (inactive) | > 100 µM (inactive) | 74.6 µM (inactive) | > 100 µM (inactive) | 60.5 µM (inactive) | 64 µM (inactive) | 62.8 µM (inactive) | > 100 µM (inactive) | 57.5 µM (inactive)
7 | c1ccc2sc(SSSc3nc4ccccc4s3)nc2c1 | > 100 µM (inactive) | > 100 µM (inactive) | > 100 µM (inactive) | > 100 µM (inactive) | > 100 µM (inactive) | > 100 µM (inactive) | > 100 µM (inactive) | > 100 µM (inactive) | > 100 µM (inactive) | > 100 µM (inactive) | > 100 µM (inactive) | 53.8 µM (inactive) | > 100 µM (inactive) | > 100 µM (inactive) |  | > 100 µM (inactive) | > 100 µM (inactive) | 28.4 µM (inactive) |  | > 100 µM (inactive)
8 | CN(C)CCNC(=O)c1cc([N+](=O)[O-])ccn1 | > 100 µM (inactive) |  | 33.6 µM (inactive) | 71.4 µM (inactive) | 30.8 µM (inactive) | 25.9 µM (inactive) | 46.8 µM (inactive) | 20.2 µM (inactive) | > 100 µM (inactive) | 32.8 µM (inactive) | 70.3 µM (inactive) | 54.8 µM (inactive) | 27 µM (inactive) | 19 µM (inactive) | 22.5 µM (inactive) | 23.1 µM (inactive) | 34 µM (inactive) | 31.6 µM (inactive) | 22.8 µM (inactive) | 45.1 µM (inactive)
9 | O=C(Nc1ccccc1)OCCN=C1c2ccccc2CCc2ccccc21 | 31.8 µM (inactive) |  | 14.8 µM (inactive) | 28.7 µM (inactive) | 17.5 µM (inactive) | 19.1 µM (inactive) | 18.5 µM (inactive) | 21.9 µM (inactive) | 15.4 µM (inactive) | 14.3 µM (inactive) | 23.6 µM (inactive) | 12.2 µM (inactive) | 35 µM (inactive) | 22.6 µM (inactive) | 13.6 µM (inactive) | 19.6 µM (inactive) | 18.5 µM (inactive) | 20.6 µM (inactive) | 18.2 µM (inactive) | 12.8 µM (inactive)
10 | CC(C)(C)C1=CC(O)(c2c3ccccc3c(C3(O)C=C(C(C)(C)C)C(=O)C(C(C)(C)C)=C3)c3ccccc23)C=C(C(C)(C)C)C1=O | > 100 µM (inactive) | < 0.01 µM (active) | > 100 µM (inactive) | > 100 µM (inactive) | > 100 µM (inactive) | > 100 µM (inactive) | > 100 µM (inactive) | > 100 µM (inactive) | > 100 µM (inactive) | > 100 µM (inactive) | > 100 µM (inactive) |  | > 100 µM (inactive) | < 0.01 µM (active) | > 100 µM (inactive) | > 100 µM (inactive) | > 100 µM (inactive) | 50.2 µM (inactive) | > 100 µM (inactive) | 58.3 µM (inactive)
11 | COC(=O)C(=O)C(C(=O)C(=O)Nc1ccc(C)cc1C)c1nc2ccc(Cl)cc2nc1O (stereo not drawn) | > 100 µM (inactive) | > 100 µM (inactive) | > 100 µM (inactive) | > 100 µM (inactive) | > 100 µM (inactive) | > 100 µM (inactive) | > 100 µM (inactive) | > 100 µM (inactive) | > 100 µM (inactive) | > 100 µM (inactive) | > 100 µM (inactive) |  | > 100 µM (inactive) | > 100 µM (inactive) | > 100 µM (inactive) | > 100 µM (inactive) | > 100 µM (inactive) | > 100 µM (inactive) | > 100 µM (inactive) | 
12 | c1ccc(/N=C(\N2CCOCC2)N(CCN2CCOCC2)c2ccccc2)cc1 | > 100 µM (inactive) |  | > 100 µM (inactive) |  | > 100 µM (inactive) | > 100 µM (inactive) | > 100 µM (inactive) | > 100 µM (inactive) | > 100 µM (inactive) | > 100 µM (inactive) | > 100 µM (inactive) | > 100 µM (inactive) | > 100 µM (inactive) | > 100 µM (inactive) | > 100 µM (inactive) | > 100 µM (inactive) | > 100 µM (inactive) | > 100 µM (inactive) | > 100 µM (inactive) | > 100 µM (inactive)
13 | CCCCC/C(=N\c1[nH]cnc1C(N)=O)OCC | > 100 µM (inactive) |  | > 100 µM (inactive) | > 100 µM (inactive) | > 100 µM (inactive) | > 100 µM (inactive) | > 100 µM (inactive) | > 100 µM (inactive) | > 100 µM (inactive) | > 100 µM (inactive) | > 100 µM (inactive) | > 100 µM (inactive) | > 100 µM (inactive) | > 100 µM (inactive) | > 100 µM (inactive) | > 100 µM (inactive) | > 100 µM (inactive) | > 100 µM (inactive) | > 100 µM (inactive) | > 100 µM (inactive)
14 | CN(CCC(=O)N1CC(CCl)c2ccc([N+](=O)[O-])cc21)CCC(=O)N1CC(CCl)c2ccc([N+](=O)[O-])cc21 (stereo not drawn) | 10.4 µM (inactive) |  | > 100 µM (inactive) | > 100 µM (inactive) | 36.6 µM (inactive) |  | 2.85 µM (inactive) | 42.7 µM (inactive) | 15.5 µM (inactive) | 4.72 µM (inactive) | 29.6 µM (inactive) | 1.77 µM (inactive) | 15.6 µM (inactive) | 13.9 µM (inactive) | 11.5 µM (inactive) | 6.52 µM (inactive) | 18.7 µM (inactive) | 15.9 µM (inactive) | 14.6 µM (inactive) | 3.96 µM (inactive)
15 | Nc1n[n+]([O-])c2cc([N+](=O)[O-])ccc2[n+]1[O-] | 30.2 µM (inactive) |  | 13.6 µM (inactive) | 21.2 µM (inactive) | 18.9 µM (inactive) | 2.87 µM (inactive) | 11 µM (inactive) | 3.43 µM (inactive) | 29 µM (inactive) |  | 10.5 µM (inactive) | 3.18 µM (inactive) | 2.22 µM (inactive) | 1.75 µM (inactive) | 1.93 µM (inactive) | 2.19 µM (inactive) | 4.33 µM (inactive) | 1.62 µM (inactive) | 4.74 µM (inactive) | 2.11 µM (inactive)
